# According to patent US20120237552A1, “Peptoid Agonists of Nerve Growth Factor and Their Use as Medicaments” (priority 2009, published 2012):
# Entries after “also recorded” stand apart in the source; their conditions may differ.
# Experiments:
# [1] = test system: C57BL/6 EAE mice; experiment: Experimental autoimmune encephalomyelitis (EAE) clinical score; type: in vivo; conditions: daily intraperitoneal, day 0 to day 25
# Experimental: Trials were approved by the Parc Cientific de Barcelona Committee on Animal Care. Female C57BL/6 mice from Harlan (8-12 weeks old) were immunized subcutaneously in both hind pads with 300 μg of myelin oligodendrocyte glycoprotein (MOG) peptide 35-55 (Spikem, Firenze) emulsified with 50 μg of Mycobacterium tuberculosis (H37Ra strain; Difco, Detroit, Mich.) in incomplete Freund's adjuvant (IFA) as previously described (Adams et al. 2007). Mice were intraperitoneally injected with Pertussis toxin (Sigma)(500 ng) at the time of immunization and 2 days later. Animals were weighted and inspected for clinical signs of disease on a daily basis by a blinded observer. Disease severity of EAE was assessed according to the following scale: 0=normal; 0.5=mild limp tail; 1=limp tail; 2=mild parapesis of the hind limbs, unsteady gait; 3=moderate parapesis, voluntary movements still possible; 4=paraplegia or tetraparesis; 5=moribund state. Data shown for the clinical studies are representative of two independent experiments performed with the indicated number of animals (Moreno et al., 2006).
# The agonist molecules selected for the animal studies, N35-4-8C, N6-4-17C and N35-4-17C, were prepared in water with 5% DMSO. Animals were treated with the agonist molecule (25, 50 and 100 mg/kg) or placebo (water+5% DMSO) through daily intraperitoneal injection starting after immunization. At the end of the study, mice were anesthetized and perfused intracardially with 4% of paraformaldehyde in 0.1M phosphate buffer (pH 7.6). Brains, spinal cords and spleens were dissected and either fixed or frozen until use. Serum was obtained from all animals included in the study, and transaminases levels were measured.
# In order to evaluate the effects of the NGF-like peptoids “in vivo”, we studied the effect of the NGF-mimetic peptoids in the animal model of MS. C57BL/6 mice immunized with MOG35-55 peptide were treated daily with N35-4-8C, N6-4-17C and N35-4-17C intraperitoneally from day 0 to day 25 at a different concentrations of the compound. N35-4-8C was tested at 3 different concentrations selected in base to previous experiments using agonist molecules in animal models: 25 mg/kg, 50 mg/kg and 100 mg/kg. […] N35-4-17C was also tested at the same concentrations. […] Moreover, the treatment had higher clinical scores with a clear worsening in the progression of the disease (FIG. 4C).
# [2] = test system: RN22 cells; experiment: RN22 cell survival under CuSO4 stress (MTT); type: cell-based, rat; conditions: CuSO4 150 μM, 24 h, peptoids 1 ng/ml-10 μg/ml; compared with NGF 100 ng/ml
# Experimental: The library was also tested to assess their capacity to promote cell survival of myelin producing cells. To delineate p75 signalling independent of TrkA, we used a rat schwannoma cell line (RN22) expressing p75, but not TrkA, (Gentry et al., 2000).
# The rat schawnnoma cell line RN22 was cultured in 5% CO2 at 37° C. in Dulbecco's modified Eagle's medium (DMEM) with 10% fetal bovine serum (FBS) and penicillin/streptomycin.
# RN22 cells were plated at 20,000 cells/well on a 24-well plate in DMEM alone and after allowing the cells to adhere for 3 days, cupper sulphate (CuSO4) (150 μM) was added with or without NGF (100 ng/ml) or the peptoids N35-4-8C, N6-4-17C and N35-4-17C at different concentrations (1 ng/ml-10 μg/ml) to generate stress and cell death. After 24 h cell viability was studied by determining the amount of yellow MTT (Sigma) that was reduced to insoluble purple formazan. After removing the medium, the water-insoluble formazan was solubilised with DMSO (Sigma), and the dissolved material was measured spectrophotometrically at a wavelength of 570 nm, subtracting the background at 650 nm (Frade, 2005).
# [3] = test system: C57BL/6 EAE mice; experiment: Histological evaluation of brain and spinal cord in EAE mice; type: in vivo; conditions: 100 mg/kg
# Experimental: Histological evaluation was done on paraformaldehyde-fixed, paraffin-embedded sections of brain and spinal cord. Sections 10 μm thick) were stained with hematoxylin and Luxol Fast Blue to assess inflammation and demyelination. Semiquantitative histological evaluation for inflammation and demyelination was conducted and scored blindly using the following scale: 0=normal; 1=1 to 3/section perivascular cuffs with minimal demyelination; 2=3 to 10 perivascular cuffs/section accompanied by moderate demyelination; 3=wide-spread perivascular cuffing, extensive demyelination with large confluent lesions (Villoslada et al., 2001).
# Immunohistochemical procedures were performed on 10 μm paraffin-embedded sections of brain and spinal cord as described previously (Villoslada et al., 2001). Primary antibodies were added at concentrations of 1/1000 for MCA500 (rat anti-mouse CD3 from Serotec) and 1/500 for MCA1107 (rat anti-mouse CD4 from Serotec). Specificity of the immunoreaction was determined by incubating sections without the primary antibodies or using the corresponding isotype controls which yielded no immunoreactivity.
# [4] = test system: PC12 cells; experiment: PC12 cell differentiation (neurite outgrowth); type: cell-based, rat; conditions: 3 days, peptoids 2 ng/ml to 50 μg/ml, reduced serum (0.5% FBS and 1% HS); compared with NGF 100 ng/ml
# Experimental: PC 12 cell differentiation was measured by plating cells onto collagen-coated 24-wells plates. NGF (100 ng/ml) or the small chemicals at different concentrations were added and the percentage of cells with neurite processes greater than two cell bodies in length were counted after relevant treatment. For each experiment at least 300 cells were randomly measured (Burstein and Greene, 1978).
# PC12 cells were maintained at 37° C. in DMEM supplemented with 2.5% FBS, 15% of Horse serum (HS) and penicillin/streptomycin in a humidified 5% CO2 incubator. The cells were grown on 60- and 100-mm tissue culture dishes (Becton Dickinson).
# PC 12 cells were cultured for 3 days in the presence of the peptoids (from 2 ng/ml to 50 μg/ml) under reduced serum conditions (0.5% FBS and 1% HS).
# [5] = test system: splenocytes isolated from naïve C57BL/6 mice; experiment: Splenocyte proliferation assay (MOG stimulated); type: cell-based; conditions: MOG 10 μg/ml, splenocytes cultured 2 hours with compound before MOG, p<0.05
# Experimental: FIG. 6 depicts effects of N35-4-8C on the peripheral immune response during EAE. […] Splenocytes were cultured for 2 hours with N35-4-8C before MOG addition. Data are means±standard error. *p<0.05 with respect to cells treated with MOG only. FIG. 6B: Gene expression profile of cytokines and inducible nitric oxide synthase (iNOS) assayed by quantitative reverse transcriptase-polymerase chain reaction (RT-PCR) in the spleen of placebo and treated animals at the end of the experiment. Data are expressed as fold change in gene expression levels in the treated groups compared with untreated controls. *p<0.05. IFN=interferon; IL=interleukin; TNF=tumor necrosis factor.
# Splenocytes from naïve, non immunized C57BL/6 mice were obtained for in vitro assessment of the effect of N35-4-8C in cell proliferation. Splenocyte proliferation assay was performed as described previously (Martinez-Forero et al., 2008).
compound,measurement,setting,value
"CC(C)CCN(CC(=O)N(CCCN1CCCC1=O)CC(N)=O)C(=O)CNCCc1ccccc1F [N35-4-8C, [N-(2-(2′-Fluorophenyl)ethyl)glycyl]-[N-(3-methylbutyl)glycyl]-N-[3-(2′-oxopyrrolidinyl)propyl]glycinamide]",EAE clinical severity,[1]; 25 mg/kg,no effect in disease clinical severity
same,EAE clinical severity,[1]; 50 mg/kg,an effect but more moderate
same,EAE clinical severity,[1]; 100 mg/kg,almost a complete prevention of EAE; also recorded: prevents EAE
same,"survival of RN22 cells (cell viability, MTT)",[2],promote survival of RN22 cells
same,histological scores at the brain and spinal cord level,"[3]; day 26, vs placebo, p<0.05",significant lower histological scores
same,demyelination areas (Luxol fast blue),"[3]; spinal cord, vs placebo",decreased
same,inflammatory infiltrates in the brain and the spinal cord,"[3]; vs placebo, p<0.05",less inflammatory infiltrates
same,differentiation of PC12 cells,[4],induce the differentiation of PC12 cells at different concentrations to an extent substantially comparable with that induce by NGF
same,MOG specific proliferative response of splenocytes,[5],significantly lower; also recorded: inhibits the proliferation of splenocytes
